Earlier results, collected in patent US20200069758A1, “COMPOSITION FOR USE IN THE PREVENTIVE AND/OR CURATIVE TREATMENT OF NON-ALCOHOLIC FATTY LIVER DISEASE” (NORMAPHAR SA, priority 2018, published 2020).

Conditions: background art statement; for complications / mortality on administration: long-term or high-dose administration

| Compound | reduction of non-alcoholic fatty liver disease (simple fatty liver disease, NASH) | complications / mortality on administration |
| --- | --- | --- |
| CN(C)C(=N)N=C(N)N [metformin] | failed to significantly reduce |  |
| CCc1ccc(CCOc2ccc(CC3SC(=O)NC3=O)cc2)nc1 (stereo not shown) [pioglitazone] |  | heart failure, osteoporosis and weight gain |
| Vitamin E | reductions were observed in the inflammation and non-alcoholic fatty liver disease | increases all-cause mortality |
